Assay results as given in patent publication US20080072494A1, “Micronutrient elicitor for treating nematodes in field crops” (priority 2006, published 2008).

What was measured:
β-1,3-glucanase = β-1,3-glucanase elicitation in germinating mung beans after seed treatment (laminarin substrate); type: in vivo; details: mung bean seeds, 0.5, 0.05 and 0.005 mg/seed; higher doses gave lower activities
Method: Enzyme activity measurements relate to the level of a given enzyme protein in the plant tissue. As an example of enhanced enzyme activity, β-1,3-glucanase was measured. The enzyme, β-1,3-glucanase, was assayed using laminarin (a soluble β-1,3-glucan) as substrate. Crude homogenates of the seedlings from treated seeds yielded the data in FIG. 1. Increased β-1,3-glucanase activity compared to controls (without seed treatment) was obtained in the micronutrient of the present invention treatments ten days following germination. Elicitation of mung beans seeds that were treated with the micronutrient of the present invention were compared to those treated with two types of elicitors. First, various concentrations of purified colloidal chitin/chitosan were used. […] Secondly, lower concentrations of the chitin oligosaccharide containing six glycan moieties, N-acetylchitohexaose were studied. The importance of the chitin oligosaccharide is that short chains of chitin have been found optimal in elicitation of many types of plants. […] Comparisons similar to those with chitin/chitosan could be made between the performance of 1 mg/seed micronutrient of the present invention and lower concentrations of the more optimal oligosaccharide.

[1] = type: physicochemical
Text: Chitin/chitosan occurs naturally in a range from 100% chitin to 100% chitosan as a mixed polymer. […] Below is data showing that the micronutrient of the present invention outperforms chitin/chitosan as an elicitor of self-protecting enzymes.

Compound	dose response relationship of β-1,3-glucanase specific activity (β-1,3-glucanase)	water solubility [1]
CC(=O)N[C@H]1[C@H](O[C@H]2[C@H](O)[C@@H](NC(C)=O)[C@H](O[C@H]3[C@H](O)[C@@H](NC(C)=O)C(O)O[C@@H]3CO)O[C@@H]2CO)O[C@H](CO)[C@@H](O[C@@H]2O[C@H](CO)[C@@H](O[C@@H]3O[C@H](CO)[C@@H](O[C@@H]4O[C@H](CO)[C@@H](O)[C@H](O)[C@H]4NC(C)=O)[C@H](O)[C@H]3NC(C)=O)[C@H](O)[C@H]2NC(C)=O)[C@@H]1O (some centres unmarked) [N-acetylchitohexaose]	negative	–
chitin/chitosan	–	not water soluble
